From patent publication US9796720B2, “Imidazole-derived modulators of the glucocorticoid receptor” (BRISTOL-MYERS SQUIBB COMPANY, priority 2013, dated 2017)
Like-named read-outs stand apart in the source and are kept apart here.

Columns and labels:
AP-1 = experiment: Cellular transrepressional assay (AP-1 luciferase reporter in A549 cells, PMA-activated); type: cell-based; settings: for EC50: read-out: AP-1 (EC50, nM) (measured in cellular transrepression assay); for Emax: read-out: AP-1 Max % inhibition (measured in cellular transrepression assay)
Protocol: Cellular Transrepressional Assay
To measure the ability of test molecules to inhibit AP-1 induced transcriptional activity we utilized an A549 cell which was stably transfected with a plasmid containing 7×AP-1 DNA binding sites (pAP-1-Luc plasmid, Stratagene Co. La Jolla, Calif.) followed by the gene for luciferase. Cells were activated with 10 ng/ml of phorbol myristic acid (PMA) plus or minus test molecules for 7 hours. After 7 hours a luciferase reagent was added to measure luciferase enzymatic activity in the cell. After a 10 minute incubation of luciferase reagent with cells, luminescence was measured in a TOPCOUNT® luminescence counter. Repression of AP-1 activity was calculated as the percentage decrease in the signal induced by PMA alone. Test molecules were analyzed in the concentration range from 0.1 nM to 40 μM. EC50s were determined by using standard curve fitting methods such as Excel fit (Microsoft Co.). An EC50 is the test molecule concentration at which there is a 50% repression of the maximal inhibition of transcription, i.e., a 50% reduction of AP-1 activity.

[1] = biological target: human full-length glucocorticoid receptor (Homo sapiens (Human), UniProt P04150); experiment: Glucocorticoid Receptor Binding Assay (II), fluorescence polarization competitor assay; settings: recombinant human full-length GR cell lysate, Fluormone GS1; read-out: GR (Ki, nM) (measured in GR binding Assay II)
Protocol: Glucocorticoid Receptor Binding Assay (II)
In order to measure the binding of compounds on the glucocorticoid receptor a commercially available kit was used (Glucocorticoid receptor competitor assay kit, PanVera Co., Madison, Wis., P2816). Briefly, a cell lysate containing recombinantly expressed human full-length glucocorticoid receptor was mixed with a fluorescently labeled glucocorticoid (1 nM Fluormone GS1) in the presence or absence of test compound. After one hour at room temperature, the fluorescence polarization (FP) of the samples were measured.

[2] = A549 cells, 7xAP-1 luciferase, PMA 10 ng/ml, 7 hours

Sequence of human full-length glucocorticoid receptor (P04150 whole entry): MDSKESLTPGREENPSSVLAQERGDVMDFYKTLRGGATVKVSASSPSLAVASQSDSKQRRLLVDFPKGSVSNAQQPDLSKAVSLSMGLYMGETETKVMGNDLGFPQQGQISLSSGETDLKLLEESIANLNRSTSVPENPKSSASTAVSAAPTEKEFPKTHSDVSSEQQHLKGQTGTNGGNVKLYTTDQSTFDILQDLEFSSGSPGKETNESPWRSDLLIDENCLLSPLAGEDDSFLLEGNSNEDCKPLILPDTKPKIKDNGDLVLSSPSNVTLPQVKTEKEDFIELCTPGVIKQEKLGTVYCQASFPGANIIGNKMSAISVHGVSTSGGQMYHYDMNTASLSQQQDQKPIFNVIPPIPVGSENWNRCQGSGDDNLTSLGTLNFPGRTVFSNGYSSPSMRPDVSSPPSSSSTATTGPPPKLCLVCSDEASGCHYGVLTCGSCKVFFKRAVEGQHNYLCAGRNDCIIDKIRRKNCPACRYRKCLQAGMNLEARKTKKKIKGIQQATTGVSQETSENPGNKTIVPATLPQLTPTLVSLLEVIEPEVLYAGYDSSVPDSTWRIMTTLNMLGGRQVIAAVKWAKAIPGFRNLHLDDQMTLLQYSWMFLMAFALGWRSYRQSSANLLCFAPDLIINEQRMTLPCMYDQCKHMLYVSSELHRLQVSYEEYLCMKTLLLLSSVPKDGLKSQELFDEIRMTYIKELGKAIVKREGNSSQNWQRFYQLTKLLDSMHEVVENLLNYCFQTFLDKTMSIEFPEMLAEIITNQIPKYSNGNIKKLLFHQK

Row | EC50 (AP-1; [2]) | Ki [1] | SMILES | Emax (AP-1; [2]) | EC50 (AP-1; 7 h) | Emax (AP-1; 7 h)
1 | 20.1 nM | 0.67 nM | CC(C)Oc1ccc(-c2ccc3c(n2)Oc2c(F)cccc2[C@@H]3C(C)(C)c2nc3nccnc3[nH]2)cc1F [Example 10, (S)-5-(2-(1H-Imidazo[4,5-b]pyrazin-2-yl)propan-2-yl)-9-fluoro-2-(3-fluoro-4-isopropoxyphenyl)-5H-chromeno[2,3-b]pyridine] | 70.2% |  | 
2 | 14.4 nM | 0.66 nM | CCOc1ccc(-c2ccc3c(n2)Oc2c(F)cccc2[C@@H]3C(C)(C)c2nc3nccnc3[nH]2)cc1 [Example 12, (S)-5-(2-(1H-Imidazo[4,5-b]pyrazin-2-yl)propan-2-yl)-2-(4-ethoxyphenyl)-9-fluoro-5H-chromeno[2,3-b]pyridine] | 62.6% |  | 
3 | 55.1 nM | 2.36 nM | CC(C)(c1nc2nccnc2[nH]1)[C@@H]1c2ccc(-c3ccc(OC(F)(F)F)cc3)nc2Oc2c(F)cccc21 [Example 13, (S)-5-(2-(1H-Imidazo[4,5-b]pyrazin-2-yl)propan-2-yl)-9-fluoro-2-(4-(trifluoromethoxy)phenyl)-5H-chromeno[2,3-b]pyridine] | 55.5% |  | 
4 | 284 nM | 16.1 nM | CC(C)(c1nc2ccccc2[nH]1)[C@@H]1c2ccc(-c3ccc(C(=O)N4CCOCC4)cc3)nc2Oc2c(F)cccc21 [Example 14, (S)-(4-(5-(2-(1H-Benzo[d]imidazol-2-yl)propan-2-yl)-9-fluoro-5H-chromeno[2,3-b]pyridin-2-yl)phenyl)(morpholino)methanone] | 31.6% |  | 
5 | 864 nM | 121 nM | CC(C)(c1nc2cccnc2[nH]1)[C@@H]1c2ccc(-c3ccc(C(=O)N4CCOCC4)cc3)nc2Oc2c(F)cccc21 [Example 15, (S)-(4-(5-(2-(3H-Imidazo[4,5-b]pyridin-2-yl)propan-2-yl)-9-fluoro-5H-chromeno[2,3-b]pyridin-2-yl)phenyl)(morpholino)methanone] | 29.3% |  | 
6 | 169 nM | 12.4 nM | CC(C)(c1nc2cncnc2[nH]1)[C@@H]1c2ccc(-c3ccc(C(=O)N4CCOCC4)cc3)nc2Oc2c(F)cccc21 [Example 16, (S)-(4-(5-(2-(9H-Purin-8-yl)propan-2-yl)-9-fluoro-5H-chromeno[2,3-b]pyridin-2-yl)phenyl)(morpholino)methanone] | 52.2% |  | 
7 | 2500 nM | 65.8 nM | CC(C)(c1nc2cncnc2[nH]1)[C@@H]1c2ccc(-c3ccc(S(C)(=O)=O)cc3)nc2Oc2c(F)cccc21 [Example 17, (S)-5-(2-(9H-Purin-8-yl)propan-2-yl)-9-fluoro-2-(4-(methylsulfonyl)phenyl)-5H-chromeno[2,3-b]pyridine] | 27.3% |  | 
8 | 61.1 nM | 16 nM | CC(C)(c1nc2nccnc2[nH]1)[C@@H]1c2ccc(-c3ccc(N4CCOCC4)cc3)nc2Oc2c(F)cccc21 [Example 18, (S)-5-(2-(1H-Imidazo[4,5-b]pyrazin-2-yl)propan-2-yl)-9-fluoro-2-(4-morpholinophenyl)-5H-chromeno[2,3-b]pyridine] | 50.6% |  | 
9 | 1950 nM | 70.5 nM | CC(=O)Nc1ccc(-c2ccc3c(n2)Oc2c(F)cccc2[C@@H]3C(C)(C)c2nc3nccnc3[nH]2)cc1 [Example 19, (S)-N-(4-(5-(2-(1H-Imidazo[4,5-b]pyrazin-2-yl)propan-2-yl)-9-fluoro-5H-chromeno[2,3-b]pyridin-2-yl)phenyl)acetamide] | 44.6% |  | 
10 | 14.2 nM | 1.4 nM | CC(C)(c1nc2nccnc2[nH]1)[C@@H]1c2ccc(-c3ccccc3)nc2Oc2c(F)cccc21 [Example 20, (S)-5-(2-(1H-Imidazo[4,5-b]pyrazin-2-yl)propan-2-yl)-9-fluoro-2-phenyl-5H-chromeno[2,3-b]pyridine] | 40% |  | 
11 | 21.1 nM | 3.92 nM | CC(C)(c1nc2nccnc2[nH]1)[C@@H]1c2ccc(-c3ccncc3)nc2Oc2c(F)cccc21 [Example 21, (S)-5-(2-(1H-Imidazo[4,5-b]pyrazin-2-yl)propan-2-yl)-9-fluoro-2-(pyridin-4-yl)-5H-chromeno[2,3-b]pyridine] | 45.9% |  | 
12 | 19.9 nM | 2.91 nM | CC(C)(c1nc2nccnc2[nH]1)[C@@H]1c2ccc(-c3ccc(N)cc3)nc2Oc2c(F)cccc21 [Example 22, (S)-4-(5-(2-(1H-Imidazo[4,5-b]pyrazin-2-yl)propan-2-yl)-9-fluoro-5H-chromeno[2,3-b]pyridin-2-yl)aniline] | 51% |  | 

The remaining lines, values behind:

Row | SMILES | EC50 (AP-1; [2]) | Ki [1] | Emax (AP-1; [2]) | EC50 (AP-1; 7 h) | Emax (AP-1; 7 h)
13 | CC(C)(c1nc2nccnc2[nH]1)[C@@H]1c2ccc(-c3ccc(C(=O)N4CCOCC4)cc3)nc2Oc2c(F)cccc21 [Example 1, (S)-(4-(5-(2-(1H-Imidazo[4,5-b]pyrazin-2-yl)propan-2-yl)-9-fluoro-5H-chromeno[2,3-b]pyridin-2-yl)phenyl)(morpholino)methanone] | 8.33 nM | 57 nM | 65.2% |  | 
14 | CC(=O)c1ccc(-c2ccc3c(n2)Oc2c(F)cccc2[C@@H]3C(C)(C)c2nc3nccnc3[nH]2)cc1 [Example 2, (S)-1-(4-(5-(2-(1H-Imidazo[4,5-b]pyrazin-2-yl)propan-2-yl)-9-fluoro-5H-chromeno[2,3-b]pyridin-2-yl)phenyl)ethanone] |  | 3.28 nM |  | 4.39 nM | 59.7%
15 | CC(C)(O)c1ccc(-c2ccc3c(n2)Oc2c(F)cccc2[C@@H]3C(C)(C)c2nc3nccnc3[nH]2)cc1 [Example 3, (S)-2-(4-(5-(2-(1H-Imidazo[4,5-b]pyrazin-2-yl)propan-2-yl)-9-fluoro-5H-chromeno[2,3-b]pyridin-2-yl)phenyl)propan-2-ol] | 3.85 nM | 2.35 nM | 65% |  | 
16 | CN(C)C(=O)c1ccc(-c2ccc3c(n2)Oc2c(F)cccc2[C@@H]3C(C)(C)c2nc3nccnc3[nH]2)cc1 [Example 4, (S)-4-(5-(2-(1H-Imidazo[4,5-b]pyrazin-2-yl)propan-2-yl)-9-fluoro-5H-chromeno[2,3-b]pyridin-2-yl)-N,N-dimethylbenzamide] | 4.94 nM | 2.63 nM | 73.1% |  | 
17 | CC(C)(c1nc2nccnc2[nH]1)[C@@H]1c2ccc(-c3ccc(S(C)(=O)=O)cc3)nc2Oc2c(F)cccc21 [Example 5, (S)-5-(2-(1H-Imidazo[4,5-b]pyrazin-2-yl)propan-2-yl)-9-fluoro-2-(4-(methylsulfonyl)phenyl)-5H-chromeno[2,3-b]pyridine] |  | 2.89 nM |  | 29.5 nM | 55.8%
18 | CCS(=O)(=O)c1ccc(-c2ccc3c(n2)Oc2c(F)cccc2[C@@H]3C(C)(C)c2nc3nccnc3[nH]2)cc1 [Example 6, (S)-5-(2-(1H-Imidazo[4,5-b]pyrazin-2-yl)propan-2-yl)-2-(4-(ethylsulfonyl)phenyl)-9-fluoro-5H-chromeno[2,3-b]pyridine] | 15.5 nM | 2.34 nM | 58.2% |  | 
19 | CC(C)S(=O)(=O)c1ccc(-c2ccc3c(n2)Oc2c(F)cccc2[C@@H]3C(C)(C)c2nc3nccnc3[nH]2)cc1 [Example 7, (S)-5-(2-(1H-Imidazo[4,5-b]pyrazin-2-yl)propan-2-yl)-9-fluoro-2-(4-(isopropylsulfonyl)phenyl)-5H-chromeno[2,3-b]pyridine] |  | 1.4 nM |  | 12.2 nM | 54.2%
20 | CC(C)Oc1ccc(-c2ccc3c(n2)Oc2c(F)cccc2[C@@H]3C(C)(C)c2nc3nccnc3[nH]2)cc1 [Example 8, (S)-5-(2-(1H-Imidazo[4,5-b]pyrazin-2-yl)propan-2-yl)-9-fluoro-2-(4-isopropoxyphenyl)-5H-chromeno[2,3-b]pyridine] | 9.82 nM | 0.76 nM | 69.8% |  | 
21 | CC(C)Oc1ccc(-c2ccc3c(n2)Oc2c(F)cccc2[C@@H]3C(C)(C)c2nc3nccnc3[nH]2)cc1Cl [Example 9, (S)-5-(2-(1H-Imidazo[4,5-b]pyrazin-2-yl)propan-2-yl)-2-(3-chloro-4-isopropoxyphenyl)-9-fluoro-5H-chromeno[2,3-b]pyridine] | 291 nM | 2.1 nM | 43.7% |  | 
22 | CC(C)(C)Oc1ccc(-c2ccc3c(n2)Oc2c(F)cccc2[C@@H]3C(C)(C)c2nc3nccnc3[nH]2)cc1 [Example 11, (S)-5-(2-(1H-Imidazo[4,5-b]pyrazin-2-yl)propan-2-yl)-2-(4-tert-butoxyphenyl)-9-fluoro-5H-chromeno[2,3-b]pyridine] |  | 0.82 nM |  | 37.5 nM | 76.3%
23 | CC(C)(c1nc2nccnc2[nH]1)[C@@H]1c2ccc(-c3ccc(NS(C)(=O)=O)cc3)nc2Oc2c(F)cccc21 [Example 23, (S)-N-(4-(5-(2-(1H-Imidazo[4,5-b]pyrazin-2-yl)propan-2-yl)-9-fluoro-5H-chromeno[2,3-b]pyridin-2-yl)phenyl)methanesulfonamide] |  | 1.76 nM |  | 22.8 nM | 58.2%
